US4077954A, “N-(p-methylphenethyl)-4a-aryl-trans-decahydroisoquinolines” (priority 1976, dated 1978)
Counter-ions that a name gives are not always drawn. Like-named read-outs stand apart in the source and are kept apart here.

Experiments:
[1] = tested on: mice (phenylquinone-induced writhing); experiment: phenylquinone writhing test (analgesic ED50), oral, mice; format: in vivo, female white mice; conditions: Mus musculus, read-out: ED50 analgesia
Protocol: A standard procedure for detecting and comparing the analgesic activity of compounds in this series for which there is good correlation with human efficacy is the standard phenylquinone writhing test modified from Siegmund, et. at., Proc. Soc. Exp. Biol. Med. 95, 729 (1957). A test compound suspended in 1% methylcellulose was given orally to fasted (17-21 hours) female white mice, 5-20 animals per double blind test. Aqueous (0.01% phenyl-p-benzoquinone) phenylquinone was injected intraperitoneally at 24 minutes later using 0.20 ml per mouse. […] The effective analgesic dose for 50% of the mice (ED 50) was calculated by the moving average method of Thompson, W. R., Bact. Rev. 11, 115-145 (1947).

[2] = Straub tail test (Straub tail ED50), intraperitoneal, mice; design: species or system CF1S female mice; conditions: mouse, in vivo; for ED50 at 25 min: ip, mice, intraperitoneal, within 25 minutes after dosing, read-out: ED50^ST (Straub tail ED50)
Protocol: Narcotic analgesics produce in mice an erection and arching of the tail (90° or more) which is referable to spinal cord stimulation. This straub tail reaction is not produced by other analgesics, including the narcotic antagonists.
The method used was modified from Shemano, I., and Wendel, H., Tox. Appl. Pharm. 6, 334-9 (1964). CF1 S female mice (18-21 g), 10-20 mice per dose were injected intraperitoneally with log scaled doses of analgesic in 1% aqueous methylcellulose. A positive Straub tail response was recorded if a tail was erected 90° or more for 5 seconds at any time within 25 minutes after dosing. A quantal Straub tail ED50 was calculated by the moving average method. (Thompson, W. R., Bact. Rev. 11, 115-145 (1947).

[3] = literature statement; cited from earlier work
[4] = Goodman & Gilman 1965; cited from earlier work
in vivo = conditions: mouse
mice [5] = conditions: cited from earlier work
mice [6] = conditions: cited from earlier work; remark: listed apart in the source
[7] = oral, Belgian Patent 802,557 compound

SMILES: COc1cccc([C@@]23CCN(CCc4ccc(C)cc4)C[C@H]2CCC(C)C3)c1 (stereo partly drawn) [N-p-methylphenethyl-4a-(m-methoxyphenyl)-6-methyl-trans-decahydroisoquinoline]
- ED50 [1]: 8.7 mg/kg
- ED50 at 25 min [2]: > 135 mg/kg

SMILES: CC1C2Cc3ccc(O)cc3C1(C)CCN2CCc1ccccc1 (stereo not shown) [phenazocine, 2'-hydroxy-5,9-dimethyl-2-phenethyl-6,7-benzomorphan]
- analgesic activity [3]: potent analgesic
- morphine-like actions [4]: produces the entire range of morphine-like actions, including respiratory depression, constipation, and physical dependence

SMILES: COc1cccc([C@@]23CCCC[C@H]2CN(CCc2ccc(C)cc2)CC3)c1 (relative stereo) [N-(p-methylphenethyl)-4a-(m-methoxyphenyl)-trans-decahydroisoquinoline]
- ED50 [1]: 5.8 mg/kg
- ED50 at 25 min [2]: 93 mg/kg

SMILES: Cc1ccc(CCN2CC[C@@]3(c4cccc(O)c4)CC(C)CC[C@@H]3C2)cc1 (stereo partly drawn) [N-(p-methylphenethyl)-4a-(m-hydroxyphenyl)-6-methyl-trans-decahydroisoquinoline]
- ED50 [1]: 2 mg/kg
- ED50 at 25 min [2]: 135 mg/kg

SMILES: CN1CCC2(c3ccccc3)CCCCC2C1 (stereo not shown) [N-methyl-4a-phenyl-decahydroisoquinoline]
- analgesic activity [3]: low analgesic activity

SMILES: CC1C2Cc3ccc(O)cc3C1(C)CCN2CCc1ccccc1 (stereo not shown) [Phenzaocine hydrobromide]
- selectivity ratio (in vivo): ~2.5
- analgesic ED50 (mice [5]; mice, Shemano and Wendel 1964): 0.2 mg/kg
- Straub tail ED50 (mice [6]; mice, Shemano and Wendel 1964): 0.5 mg/kg

SMILES: Cc1ccc(CCN2CC[C@]3(c4cccc(O)c4)CCCC[C@H]3C2)cc1 (relative stereo) [N-(p-methylphenethyl)-4a-(m-hydroxyphenyl)-trans-decahydroisoquinoline]
- ED50 [1]: 2 mg/kg
- ED50 at 25 min [2]: 93 mg/kg
- selectivity ratio ([2]; ratio of Straub tail ED50 to analgesic ED50, read-out: ED50^ST /ED50^analgesia): 46

SMILES: Oc1cccc([C@@]23CCCC[C@H]2CN(CCc2ccccc2)CC3)c1 (relative stereo) [N-phenethyl-4a-(m-hydroxyphenyl)-trans-decahydroisoquinoline]
- selectivity ratio (in vivo; po): ~1
- ED50^analgesia (mice [5]; [7]): 6.6 mg/kg
- ED50^ST (mice [6]; [7]): 10 mg/kg

SMILES: CN1CC[C@]23c4c5ccc(O)c4O[C@H]2[C@@H](O)C=C[C@H]3[C@H]1C5 [morphine]
- ED50^analgesia (mice [5]; morphine, background section): 5.6 mg/kg
